*1 amine or outer side, *2 acyl side, *3 side chain or, on linkers, in order; H or OH if unused. Bridges are numbered along the chain shown (N, C = ends). Primed or numbered codes have the meaning given here. [ ]: non-standard residue; d: D form. PyrS2″ = (S)-3-amino-1-((pent-4-en-1-yloxy)carbonyl)pyrrolidine-3-carboxylic acid (olefin stapling residue), C=CCCCOC(=O)N1CC[C@@](N[*:1])(C(=O)[*:2])C1; PyrS2 = (S)-3-amino-1-((pent-4-en-1-yloxy)carbonyl)pyrrolidine-3-carboxylic acid, olefin staple residue, C=CCCCOC(=O)N1CC[C@@](N[*:1])(C(=O)[*:2])C1; PyrS2(5) = (S)-3-amino-1-((pent-4-en-1-yloxy)carbonyl)pyrrolidine-3-carboxylic acid, C=CCCCOC(=O)N1CC[C@@](N[*:1])(C(=O)[*:2])C1; B5″ = 2-amino-2-(pent-4-en-1-yl)hept-6-enoic acid (bis-olefin stapling residue), C=CCCCC(CCCC=C)(N[*:1])C(=O)[*:2]; 2F3MeF″ = aromatic residue, Cc1cccc(C[C@H](N[*:1])C(=O)[*:2])c1F; Phe(3-COOH) = N[C@@H](Cc1cccc(C(=O)O)c1)C(=O)O; 2F3MeF = Cc1cccc(C[C@H](N[*:1])C(=O)[*:2])c1F; Bta = N[C@@H](Cc1csc2ccccc12)C(=O)O; Lys(iPr) = CC(C)NCCCC[C@H](N)C(=O)O; αAllylPro = C=CC[C@@]1(C(=O)O)CCCN1; tBuAla = CC(C)(C)C[C@H](N)C(=O)O; Cha = N[C@@H](CC1CCCCC1)C(=O)O; BztA″ = aromatic residue; Nle = CCCC[C@H](N)C(=O)O; GlnR = not defined here; B5 = not defined here
B1: I-142 (peptide)
peptide: Ac-[αAllylPro]N[tBuAla][B5]D[Phe(3-COOH)]AAFK[PyrS2(5)][2F3MeF″][BztA″][GlnR]LS-NH2
modifications: bridge 10-14; not fully specified (bridges); printed as Ac-PL3-Asn-Npg-B5-Asp-3COOHF-Ala-Ala-Phe-Lys*3-PyrS2-2F3MeF-BztA-GlnR*3-Leu-Ser-NH2; reading uncertain; also: Lys10 and GlnR14 marked *3
B2: I-143 (peptide)
peptide: Ac-[αAllylPro]N[tBuAla][B5]D[Phe(3-COOH)][Nle]AFK[PyrS2″][2F3MeF″][BztA″][GlnR]LS-NH2
modifications: bridge 10-14; not fully specified (bridges); printed as Ac-PL3-Asn-Npg-B5-Asp-3COOHF-nLeu-Ala-Phe-Lys*3-PyrS2-2F3MeF-BztA-GlnR*3-Leu-Ser-NH2; reading uncertain; also: Lys10 and GlnR14 marked *3
B3: I-149 (peptide)
peptide: Ac-[αAllylPro]N[Cha][B5″]DQ[Lys(iPr)]AF[GlnR][PyrS2″]F[Bta]K-NH2
modifications: bridge 10-14; reading uncertain; also: PL3-B5 and PyrS2 links not placed, printed as Ac-PL3-Asn-Cha-B5-Asp-Gln-iPrLys-Ala-Phe-GlnR*3-PyrS2-Phe-BztA-Lys*3-NH2
B4: I-134 (peptide)
peptide: Ac-[αAllylPro]D[tBuAla][B5]D[Phe(3-COOH)][GlnR]AFL[PyrS2][2F3MeF][Bta][GlnR](29N2spiroundecane)A-NH2
modifications: staple 1-4, 4-11 (inferred); not fully specified; printed as Ac-PL3-Asp-Npg-B5-Asp-3COOHF-GlnR-Ala-Phe-Leu-PyrS2-2F3MeF-BztA-[29N2spiroundecane]GlnR-Ala-NH2; reading uncertain; also: staple C=C reduced to CH2-CH2

What follows are molecules tested against beta-catenin (human) (assay: fluorescence polarization; bin >200 nM). Settings: not given.
Sequence of beta-catenin (human) (B6V8E6 146-665 limits assumed): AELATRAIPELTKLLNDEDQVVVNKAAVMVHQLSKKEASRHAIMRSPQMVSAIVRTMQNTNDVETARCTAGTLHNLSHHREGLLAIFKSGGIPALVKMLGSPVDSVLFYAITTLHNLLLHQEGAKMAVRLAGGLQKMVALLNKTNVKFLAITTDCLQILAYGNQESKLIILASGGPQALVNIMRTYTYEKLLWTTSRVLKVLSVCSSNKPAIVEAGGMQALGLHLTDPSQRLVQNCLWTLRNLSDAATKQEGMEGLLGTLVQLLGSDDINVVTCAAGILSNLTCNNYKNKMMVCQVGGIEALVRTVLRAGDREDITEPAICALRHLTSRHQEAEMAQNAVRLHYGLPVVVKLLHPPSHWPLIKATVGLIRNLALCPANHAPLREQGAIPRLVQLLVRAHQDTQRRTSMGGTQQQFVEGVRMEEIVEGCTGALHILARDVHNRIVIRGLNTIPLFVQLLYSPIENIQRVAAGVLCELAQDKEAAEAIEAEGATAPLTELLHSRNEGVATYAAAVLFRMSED

Row | Molecule | IC50
1 | B1 | < 750 nM
2 | B2 | < 750 nM
3 | B3 | < 750 nM
4 | B4 | < 750 nM

Each molecule was assayed on COLO320DM cells (assay: COLO320DM proliferation assay). Settings: read-out: COLO320DM Proliferation Abs IC50.
Type: cell-based, human
Method: Various technologies can be utilized to assess technologies of the present disclosure. For example, in some embodiments, solubility, LogD, interactions with targets, etc. of various agents such as stapled peptides were assessed using technologies described in WO 2022/261257 (e.g., those in its Examples). In some embodiments, solubility, shake flask LogD, and binding to beta-catenin were assessed. In some embodiments, an assay for assessing interactions, e.g., with beta-catenin, was fluorescence polarization as described in WO 2022/261257. In some embodiments, an assay was Nano-BRET target engagement assay that assessed beta-catenin/TCF4 engagement as described in WO 2022/261257. In some embodiments, an assay was a reporter assay as reported in Example 4 of WO 2022/261257. In some embodiments, an assay was a COLO320DM proliferation assay as reported in Example 4 of WO 2022/261257.
Among other things, provided technologies can inhibit proliferation of various cells including various cancer cells. In some embodiments, provided technologies modulate WNT specific transcription. In some embodiments, provided technologies induce cell cycle arrest. In some embodiments, provided technologies induce G1 cell cycle arrest. In some embodiments, provided technologies increased proportion of cells in G1 phase of cell cycle. As confirmed in FIG. 3, provided technologies can inhibit proliferation of COLO320DM, which is a colorectal cell line comprising various mutations such as APC, TP53, etc., modulate WNT specific transcription such as of AXIN2 and CXCL12, and induce G1 cell cycle arrest. In some embodiments, it was confirmed that provided technologies can reduce proportion of cells in S phase of cell cycle.

Row | Molecule | IC50
5 | CC(=O)N1CCC[C@@]1(C)C(=O)N[C@@H](CC(=O)O)C(=O)N[C@H](C(=O)N[C@]1(C)CCCCCCCCOC(=O)N2CC[C@@]3(C2)NC(=O)[C@H](CCCCNC(=O)CC[C@@H](C(=O)N[C@@H](C)C(N)=O)NC(=O)[C@H](Cc2csc4ccccc24)NC(=O)[C@H](Cc2ccsc2)NC3=O)NC(=O)[C@H](Cc2ccccc2)NC(=O)[C@H](C)NC(=O)C(C)(C)NC(=O)[C@H](Cc2cccc(C(=O)O)c2)NC(=O)[C@H](CC(=O)O)NC1=O)C(C)C (relative stereo) [I-237, Ac-MePro-Asp-Val-R5-Asp-3COOHF-Aib-Ala-Phe-Lys*3-PyrS2-3Thi-BztA-GlnR*3-Ala-NH2] | > 20 µM
6 | CC(=O)N1CCC[C@]12CC=CCCCC1(CCCC=CCCCOC(=O)N3CC[C@@]4(C3)NC(=O)[C@H](CCCCNC(=O)CC[C@@H](C(=O)N[C@@H](C)C(N)=O)NC(=O)[C@H](Cc3csc5ccccc35)NC(=O)[C@H](Cc3cccnc3)NC4=O)NC(=O)[C@H](Cc3ccccc3)NC(=O)[C@H](C)NC(=O)C(C)(C)NC(=O)[C@H](Cc3cccc(C(=O)O)c3)NC(=O)[C@H](CC(=O)O)NC1=O)NC(=O)[C@H](CC(C)(C)C)NC(=O)[C@H](CC(=O)O)NC2=O (relative stereo) [I-300, Ac-PL3-Asp-Npg-B5-Asp-3COOHF-Aib-Ala-Phe-Lys*3-PyrS2-3PyrA-BztA-GlnR*3-Ala-NH2] | > 20 µM
7 | CCCC[C@@H]1NC(=O)[C@H](CC(=O)O)NC(=O)[C@]2(CC=CCCCC3(CCCC=CCCCOC(=O)N4CC[C@@]5(C4)NC(=O)[C@H](CCCCNC(=O)CC[C@@H](C(=O)N[C@@H](C)C(N)=O)NC(=O)[C@H](Cc4csc6ccccc46)NC(=O)[C@H](Cc4ccsc4)NC5=O)NC(=O)[C@H](Cc4ccccc4)NC(=O)[C@H](C)NC(=O)C(C)(C)NC(=O)[C@H](Cc4cccc(C(=O)O)c4)NC(=O)[C@H](CC(=O)O)NC3=O)NC1=O)CCCN2C(C)=O (relative stereo) [I-245, Ac-PL3-Asp-nLeu-B5-Asp-3COOHF-Aib-Ala-Phe-Lys*3-PyrS2-3Thi-BztA-GlnR*3-Ala-NH2] | ≤ 10 µM
8 | CC(=O)N1CCC[C@]12CC=CCCCC1(CCCC=CCCCOC(=O)N3CC[C@@]4(C3)NC(=O)[C@H](CCCCNC(=O)CC[C@@H](C(=O)N[C@@H](C)C(N)=O)NC(=O)[C@H](Cc3csc5ccccc35)NC(=O)[C@H](Cc3ccsc3)NC4=O)NC(=O)[C@H](Cc3ccccc3)NC(=O)[C@H](C)NC(=O)C(C)(C)NC(=O)[C@H](Cc3cccc(C(=O)O)c3)NC(=O)[C@H](CC(=O)O)NC1=O)NC(=O)[C@H](C)NC(=O)[C@H](CC(=O)O)NC2=O (relative stereo) [I-304, Ac-PL3-Asp-Ala-B5-Asp-3COOHF-Aib-Ala-Phe-Lys*3-PyrS2-3Thi-BztA-GlnR*3-Ala-NH2] | ≤ 10 µM
9 | CC(=O)N1CCC[C@]12CC=CCCCC1(CCCC=CCCCOC(=O)N3CC[C@@]4(C3)NC(=O)[C@H](CCCCNC(=O)CC[C@@H](C(=O)N[C@@H](C)C(N)=O)NC(=O)[C@H](Cc3csc5ccccc35)NC(=O)[C@H](Cc3ccsc3)NC4=O)NC(=O)[C@H](Cc3ccccc3)NC(=O)[C@H](C)NC(=O)C(C)(C)NC(=O)[C@H](Cc3cccc(C(=O)O)c3)NC(=O)[C@H](CC(=O)O)NC1=O)NC(=O)[C@H](CCCN1CCOCC1)NC(=O)[C@H](CC(=O)O)NC2=O (relative stereo) [I-313, Ac-PL3-Asp-MorphNva-B5-Asp-3COOHF-Aib-Ala-Phe-Lys*3-PyrS2-3Thi-BztA-GlnR*3-Ala-NH2] | > 20 µM
10 | CC(=O)N1CCC[C@]12CC=CCCCC1(CCCC=CCCCOC(=O)N3CC[C@@]4(C3)NC(=O)[C@H](CCCCNC(=O)CC[C@@H](C(=O)N[C@@H](C)C(N)=O)NC(=O)[C@H](Cc3csc5ccccc35)NC(=O)[C@H](Cc3ccsc3)NC4=O)NC(=O)[C@H](Cc3ccccc3)NC(=O)[C@H](C)NC(=O)[C@H](Cc3ccccc3)NC(=O)[C@H](Cc3cccc(C(=O)O)c3)NC(=O)[C@H](CC(=O)O)NC1=O)NC(=O)[C@H](CC(C)(C)C)NC(=O)[C@H](CC(=O)O)NC2=O (relative stereo) [I-386, Ac-PL3-Asp-Npg-B5-Asp-3COOHF-Phe-Ala-Phe-Lys*3-PyrS2-3Thi-BztA-GlnR*3-Ala-NH2] | > 20 µM
11 | CC(=O)N1CCC[C@]12CC=CCCCC1(CCCC=CCCCOC(=O)N3CC[C@@]4(C3)NC(=O)[C@H](CCCCNC(=O)CC[C@@H](C(=O)N[C@@H](C)C(N)=O)NC(=O)[C@H](Cc3csc5ccccc35)NC(=O)[C@H](Cc3ccccc3C)NC4=O)NC(=O)[C@H](Cc3ccccc3)NC(=O)[C@H](C)NC(=O)C(C)(C)NC(=O)[C@H](Cc3cccc(C(=O)O)c3)NC(=O)[C@H](CC(=O)O)NC1=O)NC(=O)[C@H](CC(C)(C)C)NC(=O)[C@H](CC(=O)O)NC2=O (relative stereo) [I-294, Ac-PL3-Asp-Npg-B5-Asp-3COOHF-Aib-Ala-Phe-Lys*3-PyrS2-2MeF-BztA-GlnR*3-Ala-NH2] | ≤ 10 µM
12 | CC(=O)N1CCC[C@]12CC=CCCCC1(CCCC=CCCCOC(=O)N3CC[C@@]4(C3)NC(=O)[C@H](CCCCNC(=O)CC[C@@H](C(=O)N[C@@H](C)C(N)=O)NC(=O)[C@H](Cc3csc5ccccc35)NC(=O)[C@H](Cc3ccccn3)NC4=O)NC(=O)[C@H](Cc3ccccc3)NC(=O)[C@H](C)NC(=O)C(C)(C)NC(=O)[C@H](Cc3cccc(C(=O)O)c3)NC(=O)[C@H](CC(=O)O)NC1=O)NC(=O)[C@H](CC(C)(C)C)NC(=O)[C@H](CC(=O)O)NC2=O (relative stereo) [I-299, Ac-PL3-Asp-Npg-B5-Asp-3COOHF-Aib-Ala-Phe-Lys*3-PyrS2-2PyrA-BztA-GlnR*3-Ala-NH2] | 10 to 20 µM
13 | CC(=O)N1CCC[C@]12CC=CCCCC1(CCCC=CCCCOC(=O)N3CC[C@@]4(C3)NC(=O)[C@H](CCCCNC(=O)CC[C@@H](C(=O)N[C@@H](C)C(N)=O)NC(=O)[C@H](Cc3csc5ccccc35)NC(=O)[C@H](Cc3ccncc3)NC4=O)NC(=O)[C@H](Cc3ccccc3)NC(=O)[C@H](C)NC(=O)C(C)(C)NC(=O)[C@H](Cc3cccc(C(=O)O)c3)NC(=O)[C@H](CC(=O)O)NC1=O)NC(=O)[C@H](CC(C)(C)C)NC(=O)[C@H](CC(=O)O)NC2=O (relative stereo) [I-301, Ac-PL3-Asp-Npg-B5-Asp-3COOHF-Aib-Ala-Phe-Lys*3-PyrS2-4PyrA-BztA-GlnR*3-Ala-NH2] | > 20 µM
14 | CC(=O)N1CCC[C@]12CC=CCCCC1(CCCC=CCCCOC(=O)N3CC[C@@]4(C3)NC(=O)[C@H](CCCCNC(=O)CC[C@@H](C(=O)N[C@@H](C)C(N)=O)NC(=O)[C@H](Cc3csc5ccccc35)NC(=O)[C@H](Cc3ccsc3)NC4=O)NC(=O)[C@H](Cc3ccccc3)NC(=O)[C@H](C)NC(=O)C(C)(C)NC(=O)[C@H](Cc3cccc(C(=O)O)c3)NC(=O)[C@H](CC(=O)O)NC1=O)NC(=O)[C@H](C1CCCCC1)NC(=O)[C@H](CC(=O)O)NC2=O (single isomer, unassigned) [I-253, Ac-PL3-Asp-Chg-B5-Asp-3COOHF-Aib-Ala-Phe-Lys*3-PyrS2-3Thi-BztA-GlnR*3-Ala-NH2] | ≤ 10 µM

The molecules below were run against beta-catenin (human) (assay: cell-based or functional assay). Settings: not given.

Row | Molecule | NanoBRET Abs IC50 (bin >3.0 uM) | NanoBRET Abs IC50
15 | B1 | < 10 µM | 
16 | B2 |  | > 10 µM
17 | B3 |  | > 10 µM
18 | B4 |  | > 10 µM

— US20260207704A1, “STAPLED PEPTIDES AND METHODS THEREOF” (priority 2022, published 2026)
